Values quoted from earlier work in patent US20240397950A1, “DISINFECTANT COMPOSITION” (OTSUKA PHARMACEUTICAL FACTORY, INC., priority 2018, published 2024).

- pH at which a dilute aqueous solution causes precipitation: ≥ 8
SMILES: N=C(NCCCCCCNC(=N)NC(=N)Nc1ccc(Cl)cc1)NC(=N)Nc1ccc(Cl)cc1.O=C(O)[C@H](O)[C@@H](O)[C@H](O)[C@H](O)CO.O=C(O)[C@H](O)[C@@H](O)[C@H](O)[C@H](O)CO [Chlorhexidine gluconate]
